Source: ChEMBL document CHEMBL4715821, “Discovery of 4-ethoxy-7H-pyrrolo[2,3-d]pyrimidin-2-amines as potent, selective and orally bioavailable LRRK2 inhibitors” (Bioorg Med Chem Lett, 2018)

Tests used:
[1] = target: Dual specificity protein kinase CLK4 (Homo sapiens) (UniProt Q9HAZ1); assay: Inhibition of wild-type human partial length CLK4 (R135 to K481 residues) expressed in bacterial expression system assessed as residual activity at 1 uM by Kinomescan method relative to control
[2] = target: Death-associated protein kinase 2 (Homo sapiens) (UniProt Q9UIK4); assay: Inhibition of wild type human full length DAPK2 (M1 to S370 residues) expressed in bacterial expression system assessed as residual activity at 1 uM by Kinomescan method relative to control
[3] = target: Inhibitor of nuclear factor kappa-B kinase subunit beta (Homo sapiens) (UniProt O14920); assay: Inhibition of wild-type human full length IKK-beta (M1 to S756 residues) expressed in mammalian expression system assessed as residual activity at 1 uM by Kinomescan method relative to control
[4] = target: NUAK family SNF1-like kinase 2 (Homo sapiens) (UniProt Q9H093); assay: Inhibition of wild-type human partial length SNARK (P22 to A333 residues) expressed in mammalian expression system assessed as residual activity at 1 uM by Kinomescan method relative to control
[5] = target: Non-receptor tyrosine-protein kinase TYK2 (Homo sapiens) (UniProt P29597); assay: Inhibition of wild-type human partial length TYK2 expressed in mammalian expression system assessed as residual activity at 1 uM by Kinomescan method relative to control
[6] = target: Dual specificity protein kinase CLK2 (Homo sapiens) (UniProt P49760); assay: Inhibition of wild-type human partial length CLK2 (D144 to R498 residues) expressed in bacterial expression system assessed as residual activity at 1 uM by Kinomescan method relative to control
[7] = target: Tyrosine-protein kinase Blk (Homo sapiens) (UniProt P51451); assay: Inhibition of wild-type human partial length BLK (G211 to L503 residues) expressed in bacterial expression system assessed as residual activity at 1 uM by Kinomescan method relative to control
[8] = target: Dual specificity mitogen-activated protein kinase kinase 3 (Homo sapiens) (UniProt P46734); assay: Inhibition of wild-type human full length MEK3 (M1 to S318 residues) expressed in mammalian expression system assessed as residual activity at 1 uM by Kinomescan method relative to control
[9] = target: CDK4/Cyclin D3 (Homo sapiens) (UniProt P11802+P30281); assay: Inhibition of wild-type human full length CDK4/cyclinD3 (M1 to E303 residues) expressed in mammalian expression system assessed as residual activity at 1 uM by Kinomescan method relative to control
[10] = target: Dual specificity mitogen-activated protein kinase kinase 6 (Homo sapiens) (UniProt P52564); assay: Inhibition of MKK6 (unknown origin) assessed as residual activity at 1 uM by Kinomescan method relative to control
[11] = target: Serine/threonine-protein kinase N1 (Homo sapiens) (UniProt Q16512); assay: Inhibition of wild-type human partial length PKN1 (E598 to C948 residues) expressed in bacterial expression system assessed as residual activity at 1 uM by Kinomescan method relative to control
[12] = target: LIM domain kinase 2 (Homo sapiens) (UniProt P53671); assay: Inhibition of wild-type human full length LIMK2 (M1 to P638 residues) expressed in bacterial expression system assessed as residual activity at 1 uM by Kinomescan method relative to control
[13] = target: Serine/threonine-protein kinase MRCK gamma (Homo sapiens) (UniProt Q6DT37); assay: Inhibition of wild-type human partial length DMPK2 (S46 to S408 residues) expressed in bacterial expression system assessed as residual activity at 1 uM by Kinomescan method relative to control
[14] = target: Aurora kinase C (Homo sapiens) (UniProt Q9UQB9); assay: Inhibition of wild-type human full length AURKC (M1 to S275 residues) expressed in bacterial expression system assessed as residual activity at 1 uM by Kinomescan method relative to control
[15] = target: Calcium/calmodulin-dependent protein kinase type 1 (Homo sapiens) (UniProt Q14012); assay: Inhibition of wild-type human full length CAMK1A (M1 to L370 residues) expressed in bacterial expression system assessed as residual activity at 1 uM by Kinomescan method relative to control
[16] = target: Proto-oncogene tyrosine-protein kinase receptor Ret (Homo sapiens) (UniProt P07949); assay: Inhibition of wild-type human partial length RET (E713 to D1014 residues) expressed in bacterial expression system assessed as residual activity at 1 uM by Kinomescan method relative to control
[17] = target: Interleukin-1 receptor-associated kinase 1 (Homo sapiens) (UniProt P51617); assay: Inhibition of wild-type human partial length IRAK1 (R194 to S712 residues) expressed in mammalian expression system assessed as residual activity at 1 uM by Kinomescan method relative to control
[18] = target: CDK1/Cyclin E (Homo sapiens) (UniProt P06493+P24864); assay: Inhibition of CDK1/Cyclin E (unknown origin) assessed as residual activity at 1 uM by Kinomescan method relative to control; assay type: protein-complex assay
[19] = target: Serine/threonine-protein kinase PLK3 (Homo sapiens) (UniProt Q9H4B4); assay: Inhibition of wild-type human partial length PLK3 (A42 to L334 residues) expressed in mammalian expression system assessed as residual activity at 1 uM by Kinomescan method relative to control
[20] = target: Dual specificity protein kinase CLK3 (Homo sapiens) (UniProt P49761); assay: Inhibition of wild-type human full length CLK3 (M1 to R490 residues) expressed in bacterial expression system assessed as residual activity at 1 uM by Kinomescan method relative to control
[21] = target: Receptor tyrosine-protein kinase erbB-4 (Homo sapiens) (UniProt Q15303); assay: Inhibition of wild-type human partial length ERBB4 (L690 to K994 residues) expressed in bacterial expression system assessed as residual activity at 1 uM by Kinomescan method relative to control
[22] = target: Tyrosine-protein kinase Lyn (Homo sapiens) (UniProt P07948); assay: Inhibition of human LYN B assessed as residual activity at 1 uM by Kinomescan method relative to control
[23] = target: Mitogen-activated protein kinase kinase kinase 20 (Homo sapiens) (UniProt Q9NYL2); assay: Inhibition of wild-type human partial length ZAK (M1 to L331 residues) expressed in bacterial expression system assessed as residual activity at 1 uM by Kinomescan method relative to control
[24] = target: Myosin light chain kinase 2, skeletal/cardiac muscle (Homo sapiens) (UniProt Q9H1R3); assay: Inhibition of MLCK2 (unknown origin) assessed as residual activity at 1 uM by Kinomescan method relative to control
[25] = target: Calcium/calmodulin-dependent protein kinase kinase 1 (Homo sapiens) (UniProt Q8N5S9); assay: Inhibition of wild-type human partial length CAMKK1 (R65 to E414 residues) expressed in bacterial expression system assessed as residual activity at 1 uM by Kinomescan method relative to control
[26] = target: Serine/threonine-protein kinase Chk1 (Homo sapiens) (UniProt O14757); assay: Inhibition of CHK1 (unknown origin) assessed as residual activity at 1 uM by Kinomescan method relative to control

Tyrosine-protein kinase Lyn (Homo sapiens), sequence (P07948 2-512 limits assumed): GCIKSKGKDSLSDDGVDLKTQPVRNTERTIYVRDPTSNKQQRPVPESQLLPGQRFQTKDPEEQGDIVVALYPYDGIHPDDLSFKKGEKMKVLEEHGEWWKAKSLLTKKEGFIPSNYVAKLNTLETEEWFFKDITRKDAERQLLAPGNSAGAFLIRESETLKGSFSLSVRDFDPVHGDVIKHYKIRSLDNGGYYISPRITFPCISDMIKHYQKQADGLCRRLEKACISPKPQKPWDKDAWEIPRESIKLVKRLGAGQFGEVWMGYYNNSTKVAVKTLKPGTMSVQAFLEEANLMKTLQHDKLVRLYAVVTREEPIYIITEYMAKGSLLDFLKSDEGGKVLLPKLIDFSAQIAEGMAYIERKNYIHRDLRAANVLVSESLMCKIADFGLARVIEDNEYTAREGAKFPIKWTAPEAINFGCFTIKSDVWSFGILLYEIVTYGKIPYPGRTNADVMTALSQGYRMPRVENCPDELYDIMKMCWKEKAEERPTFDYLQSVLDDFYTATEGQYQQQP
Receptor tyrosine-protein kinase erbB-4 (Homo sapiens), sequence (Q15303 whole entry, the tested form may be a part): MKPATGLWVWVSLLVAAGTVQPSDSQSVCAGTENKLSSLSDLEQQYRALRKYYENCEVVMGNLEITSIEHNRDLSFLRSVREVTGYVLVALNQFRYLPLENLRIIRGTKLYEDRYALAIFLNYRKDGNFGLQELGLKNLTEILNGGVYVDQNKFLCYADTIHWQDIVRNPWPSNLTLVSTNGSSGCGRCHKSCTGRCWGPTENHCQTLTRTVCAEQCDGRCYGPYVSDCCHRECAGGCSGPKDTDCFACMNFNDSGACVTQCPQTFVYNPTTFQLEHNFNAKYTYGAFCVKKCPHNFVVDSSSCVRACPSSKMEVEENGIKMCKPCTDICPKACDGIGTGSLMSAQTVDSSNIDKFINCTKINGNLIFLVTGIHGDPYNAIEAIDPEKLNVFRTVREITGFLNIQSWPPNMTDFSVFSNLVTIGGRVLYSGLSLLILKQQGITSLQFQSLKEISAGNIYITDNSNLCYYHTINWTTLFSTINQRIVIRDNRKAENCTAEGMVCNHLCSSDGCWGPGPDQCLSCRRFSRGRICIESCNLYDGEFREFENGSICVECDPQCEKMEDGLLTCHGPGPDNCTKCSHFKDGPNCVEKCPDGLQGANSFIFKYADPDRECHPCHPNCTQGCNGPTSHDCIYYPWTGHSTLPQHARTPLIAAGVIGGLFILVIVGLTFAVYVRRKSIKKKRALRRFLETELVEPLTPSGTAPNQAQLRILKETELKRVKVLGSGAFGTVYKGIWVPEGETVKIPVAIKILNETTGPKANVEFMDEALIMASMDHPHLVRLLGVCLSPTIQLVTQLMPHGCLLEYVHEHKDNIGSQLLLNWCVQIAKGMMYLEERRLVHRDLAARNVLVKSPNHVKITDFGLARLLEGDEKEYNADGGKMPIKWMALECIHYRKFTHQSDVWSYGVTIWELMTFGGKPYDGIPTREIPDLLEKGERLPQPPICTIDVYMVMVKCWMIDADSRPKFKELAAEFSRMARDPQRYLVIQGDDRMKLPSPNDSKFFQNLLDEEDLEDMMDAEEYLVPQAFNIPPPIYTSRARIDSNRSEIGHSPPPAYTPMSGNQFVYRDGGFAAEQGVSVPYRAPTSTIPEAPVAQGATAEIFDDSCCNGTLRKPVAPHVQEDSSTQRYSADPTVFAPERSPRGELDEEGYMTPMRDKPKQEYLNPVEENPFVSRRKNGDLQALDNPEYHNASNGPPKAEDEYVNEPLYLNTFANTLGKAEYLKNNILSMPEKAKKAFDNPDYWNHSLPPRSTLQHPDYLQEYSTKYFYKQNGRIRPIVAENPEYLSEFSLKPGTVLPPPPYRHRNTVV
Serine/threonine-protein kinase N1 (Homo sapiens), sequence (Q16512 2-942 limits assumed): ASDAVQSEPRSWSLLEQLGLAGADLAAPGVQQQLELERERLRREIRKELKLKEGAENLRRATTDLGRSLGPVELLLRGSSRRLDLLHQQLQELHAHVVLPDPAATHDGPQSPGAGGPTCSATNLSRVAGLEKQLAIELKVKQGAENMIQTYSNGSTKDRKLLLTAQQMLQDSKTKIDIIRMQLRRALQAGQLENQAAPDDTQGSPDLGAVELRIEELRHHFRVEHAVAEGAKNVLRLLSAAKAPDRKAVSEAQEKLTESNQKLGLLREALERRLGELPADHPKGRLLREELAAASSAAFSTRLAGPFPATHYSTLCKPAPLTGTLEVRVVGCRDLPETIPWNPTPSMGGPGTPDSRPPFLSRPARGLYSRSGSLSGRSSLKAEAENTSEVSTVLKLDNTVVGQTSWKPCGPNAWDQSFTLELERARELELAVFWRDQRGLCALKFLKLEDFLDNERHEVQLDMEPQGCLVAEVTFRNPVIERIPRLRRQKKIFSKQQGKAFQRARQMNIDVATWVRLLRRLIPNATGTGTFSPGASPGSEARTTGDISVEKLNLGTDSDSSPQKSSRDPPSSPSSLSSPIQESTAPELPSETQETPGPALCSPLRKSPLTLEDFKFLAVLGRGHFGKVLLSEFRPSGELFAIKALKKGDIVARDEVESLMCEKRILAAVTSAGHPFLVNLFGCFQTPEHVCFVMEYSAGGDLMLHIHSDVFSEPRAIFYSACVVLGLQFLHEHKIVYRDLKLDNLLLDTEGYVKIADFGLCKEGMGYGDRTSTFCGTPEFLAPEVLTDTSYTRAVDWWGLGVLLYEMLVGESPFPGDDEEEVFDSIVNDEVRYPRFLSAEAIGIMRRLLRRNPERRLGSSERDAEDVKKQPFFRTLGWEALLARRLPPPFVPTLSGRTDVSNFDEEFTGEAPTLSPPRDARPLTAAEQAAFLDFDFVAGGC
Dual specificity mitogen-activated protein kinase kinase 6 (Homo sapiens), sequence (P52564 whole entry, the tested form may be a part): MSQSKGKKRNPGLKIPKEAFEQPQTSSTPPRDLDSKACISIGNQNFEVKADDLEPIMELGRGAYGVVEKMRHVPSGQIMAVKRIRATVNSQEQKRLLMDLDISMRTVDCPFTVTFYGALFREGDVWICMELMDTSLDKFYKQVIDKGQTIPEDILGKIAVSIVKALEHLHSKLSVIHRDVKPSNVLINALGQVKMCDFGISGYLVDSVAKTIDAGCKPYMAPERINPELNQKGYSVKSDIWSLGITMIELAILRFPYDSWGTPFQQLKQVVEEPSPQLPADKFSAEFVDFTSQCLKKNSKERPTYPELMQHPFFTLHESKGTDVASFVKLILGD
Dual specificity mitogen-activated protein kinase kinase 3 (Homo sapiens), sequence (P46734 whole entry, the tested form may be a part): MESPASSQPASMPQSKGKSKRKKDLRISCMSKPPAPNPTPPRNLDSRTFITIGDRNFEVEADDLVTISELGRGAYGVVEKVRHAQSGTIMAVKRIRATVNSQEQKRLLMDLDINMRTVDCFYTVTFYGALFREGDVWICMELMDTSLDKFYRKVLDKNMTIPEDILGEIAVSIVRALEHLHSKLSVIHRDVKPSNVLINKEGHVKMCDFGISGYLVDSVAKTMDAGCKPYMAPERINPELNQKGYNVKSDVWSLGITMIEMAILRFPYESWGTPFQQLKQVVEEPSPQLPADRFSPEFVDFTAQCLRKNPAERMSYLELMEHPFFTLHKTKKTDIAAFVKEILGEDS
Serine/threonine-protein kinase MRCK gamma (Homo sapiens), sequence (Q6DT37 whole entry, the tested form may be a part): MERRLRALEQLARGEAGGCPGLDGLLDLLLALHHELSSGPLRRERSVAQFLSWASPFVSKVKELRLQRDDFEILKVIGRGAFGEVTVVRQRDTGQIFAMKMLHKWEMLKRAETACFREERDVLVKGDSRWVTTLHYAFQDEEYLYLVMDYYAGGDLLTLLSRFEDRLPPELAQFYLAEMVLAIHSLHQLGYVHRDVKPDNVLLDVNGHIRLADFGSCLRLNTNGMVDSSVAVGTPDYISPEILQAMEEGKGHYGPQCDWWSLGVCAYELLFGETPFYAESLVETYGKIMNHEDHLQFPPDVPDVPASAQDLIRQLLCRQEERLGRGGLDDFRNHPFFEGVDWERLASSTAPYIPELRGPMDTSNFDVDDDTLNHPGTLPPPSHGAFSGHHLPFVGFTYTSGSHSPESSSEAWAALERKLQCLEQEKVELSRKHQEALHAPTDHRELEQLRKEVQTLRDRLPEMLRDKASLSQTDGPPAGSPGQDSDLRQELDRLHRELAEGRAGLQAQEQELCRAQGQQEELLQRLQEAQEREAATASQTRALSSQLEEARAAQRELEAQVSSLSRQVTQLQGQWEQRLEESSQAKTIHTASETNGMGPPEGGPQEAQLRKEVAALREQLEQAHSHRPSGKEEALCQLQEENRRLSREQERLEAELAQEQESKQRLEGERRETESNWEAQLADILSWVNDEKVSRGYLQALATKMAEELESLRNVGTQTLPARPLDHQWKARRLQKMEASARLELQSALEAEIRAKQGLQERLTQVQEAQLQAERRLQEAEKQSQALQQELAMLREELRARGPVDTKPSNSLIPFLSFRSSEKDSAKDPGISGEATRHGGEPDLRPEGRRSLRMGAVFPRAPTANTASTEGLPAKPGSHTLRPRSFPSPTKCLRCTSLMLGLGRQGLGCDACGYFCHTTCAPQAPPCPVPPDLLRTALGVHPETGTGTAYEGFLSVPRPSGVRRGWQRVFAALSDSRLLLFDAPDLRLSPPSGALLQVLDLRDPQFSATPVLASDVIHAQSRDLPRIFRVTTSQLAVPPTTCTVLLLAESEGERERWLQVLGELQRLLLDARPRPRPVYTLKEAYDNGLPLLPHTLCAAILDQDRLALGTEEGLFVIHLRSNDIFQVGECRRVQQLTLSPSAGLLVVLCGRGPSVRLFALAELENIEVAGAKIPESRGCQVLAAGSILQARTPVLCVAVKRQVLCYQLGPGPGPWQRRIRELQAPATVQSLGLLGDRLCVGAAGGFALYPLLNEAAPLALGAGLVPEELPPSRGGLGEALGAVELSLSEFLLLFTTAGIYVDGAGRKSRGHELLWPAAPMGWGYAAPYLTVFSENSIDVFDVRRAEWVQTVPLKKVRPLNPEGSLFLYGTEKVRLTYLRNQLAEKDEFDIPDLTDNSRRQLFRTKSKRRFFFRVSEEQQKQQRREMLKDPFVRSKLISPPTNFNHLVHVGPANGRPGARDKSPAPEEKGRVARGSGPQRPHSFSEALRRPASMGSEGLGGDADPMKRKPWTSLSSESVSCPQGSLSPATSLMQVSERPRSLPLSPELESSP

CCOc1nc(Nc2ccc(C(=O)N3CCOCC3)cc2OC)nc2[nH]ccc12
Activity [1]: 35.5%
Activity [2]: 137%
Activity [3]: 101%
Activity [4]: 98.5%
Activity [5]: 96.5%
Activity [6]: 28.3%
Activity [7]: 114%
Activity [8]: 134%
Activity [9]: 92.8%
Activity [10]: 63.1%
Activity [11]: 94.8%
Activity [12]: 106%
Activity [13]: 106%
Activity [14]: 97.3%
Activity [15]: 85.9%
Activity [16]: 101%
Activity [17]: 105%
Activity [18]: 96.4%
Activity [19]: 88.1%
Activity [20]: 90.1%
Activity [21]: 101%
Activity [22]: 97.5%
Activity [23]: 97.2%
Activity [24]: 95.6%
Activity [25]: 101%
Activity [26]: 84.5%
